The subject of one data set is Rattus norvegicus. Briefly: Hypotensive activity measured as the 20% decrease in mean arterial blood pressure in anesthetized normotensive rat. In kind it is functional.
Another data set concerns Felis catus. Briefly: Hypotensive activity measured as the 20% decrease in mean arterial blood pressure in anesthetized cat. In kind it is functional.
Data set [1] in a line: Partition coefficient (logP). It counts as physicochemical. The note with it: octanol/water.

In general, logP refers to the decadic logarithm of the partition coefficient of the neutral form, usually between octanol and water. A low value points to lower lipophilicity.

In the case of `Cc1ccc(Cl)c(Cl)c1NC1=NCCN1`, the pC20 in the data set on Rattus norvegicus turned out to be 7.79; with Felis catus, 7.92. Also, in data set [1], the logP was 1.06.

Consider `Clc1ccc(Cl)c(NC2=NCCN2)c1Cl`, for which the pC20 is listed as 8.39 in the data set with Rattus norvegicus and 9.17 in the data set with Felis catus. In addition, in data set [1], the logP came to 1.71.

As to `Clc1cccc(Cl)c1NC1=NCCN1` [CLONIDINE], the pC20 is 7.96 with Rattus norvegicus and 8.72 in the data set with Felis catus. The molecule also had a logP in data set [1] of 0.91.
